Laboratory results taken from US7435431B2, “Method for controlling body weight in estrogen-insufficient women” (Abbott Laboratories, priority 2004, dated 2008).

Experiments:
Assay type in all cases: in vivo, rat
[1] = system: ovariectomized (OVX) rats; experiment: Experiment III: bone mineral density and bone mineral content (DEXA)
Method: (§1) After five days of acclimatization, study animals were randomly assigned to one of 15 groups (n=10/group) and placed in individual cages. Rats were either sham-operated (SHAM) or ovariectomized (OVX) and fed casein-based diets for forty days. To ensure that sufficient bone loss has occurred in the OVX animals, bone mineral density was assessed via Dual Energy X-ray Absorptiometry (DEXA) prior to treatment. Groups 1 and 2 were fed casein-based diets throughout the entire length of the study and served as the control groups. Treatments were initiated for Groups 3-15 forty days post ovariectomy surgery and followed for 60 days. Bone mineral density was assessed before and after treatments. Two days prior to the termination of the study, rats were placed in individual metabolic cages and urine was collected from 18:00 h-6:00 h. During this period, the rats had no access to food. Urine was collected in acid-washed tubes, acidified with 0.03 ml of 6 mol/L of HCl per ml of urine and the total volume was measured. At the end of the study, the rats were anesthetized with ketomine and xylazine (intraperitoneally; 100 mg and 5 mg/kg body weight, respectively) and exsanguinated. Blood was collected, serum separated and aliquoted in small samples. All urine and plasma samples were frozen at −20° C. until analyses. Femurs and 3-5 lumbar spine were dissected out for bone analyses. Initial and weekly body weights were measured. Sham animals were fed ad libitum and their precise food intakes were measured every three days. Before each feeding, the food remaining was weighed and the amount ingested was calculated. Rats in the other groups were pair-fed to the mean intake of the sham animals and had free access to deionized water.
(§2) The design was a randomized, prospective, single-blind, positive controlled, parallel study. Control groups were fed a casein-based diet. Treatment groups were fed semi-purified diets containing casein, fructooligosaccharides, whole dried plum powder or dried plum polyphenol solids, dried plum juice solids, dried plum puree solids, dried plum skin solids or raisin solids or fig solids or date solids or blueberry solids or HMB. The treatment groups are outlined in following table:
(§3) One hundred fifty, (n=10/group) ninety day old Harlan Sprague-Dawley, 210 gm, female rats were purchased from Harlan Sprague Dawley Inc. (Indianapolis, Ind.). Upon arrival at the institution, rats were individually housed in stainless steel wire mesh cages in an environmentally controlled animal laboratory at 25° C. with a 12 h light-dark cycle. The rats had free access to deionized water and semi-purified diets. They were handled according to National Institutes of Health guidelines for humane treatment of experimental animals.
The composition of the semi-purified casein-based diets are described in the following table. To ensure equivalency, the diets were assayed for carbohydrate, protein, fat, calcium and phosphorus content prior to the feeding protocol. All diets were prepared to be isonitrogenous, isocaloric and equivalent in calcium and phosphorus content. The diets consisted of approximately 22% protein, 67% carbohydrate and 11% fat. The treatment diets also contained 7.5% or 5% (w/w) dried plum powder (Sunsweet Growers, Inc., Pleasanton, Calif.), or 7.5% (w/w) dried plum solids from juice concentrate (Sunsweet Growers, Inc., Pleasanton, Calif.), or 7.5% (w/w) dried plum solids from puree (Sunsweet Growers, Inc., Pleasanton, Calif.), or 7.5% (w/w) dried plum solids from pulp/skins (Sunsweet Growers, Inc., Pleasanton, Calif.), or dried plum polyphenols equivalent to 7.5% (w/w) dried plum powder, or 7.5% (w/w) raisin solids (Mid America), or 7.5% (w/w) fig solids (Mid America), or 7.5% (w/w) date solids (Mid America), or 7.5% (w/w) blueberry solids (Mid America), or 0.25% (w/w) HMB (Metabolic Technologies, Inc., Ames, Iowa) and 5% or 2% (w/w) short chain fructooligosaccharides (NutraFlora®, FOS Golden Technologies, Inc). […]

[2] = system: ovariectomized (OVX) rats; experiment: Experiment III: micro-computed tomography
Method: as §1, §2, §3
The composition of the semi-purified casein-based diets are described in the following table. To ensure equivalency, the diets were assayed for carbohydrate, protein, fat, calcium and phosphorus content prior to the feeding protocol. All diets were prepared to be isonitrogenous, isocaloric and equivalent in calcium and phosphorus content. The diets consisted of approximately 22% protein, 67% carbohydrate and 11% fat. […]

[3] = Experiment III: body weight gain, fat gain and food intake
Method: (§4) After five days of acclimatization, study animals were randomly assigned to one of 15 groups (n=10/group) and placed in individual cages. Rats were either sham-operated (SHAM) or ovariectomized (OVX) and fed casein-based diets for forty days. To ensure that sufficient bone loss has occurred in the OVX animals, bone mineral density was assessed via Dual Energy X-ray Absorptiometry (DEXA) prior to treatment. Groups 1 and 2 were fed casein-based diets throughout the entire length of the study and served as the control groups. Treatments were initiated for Groups 3-15 forty days post ovariectomy surgery and followed for 60 days. Bone mineral density was assessed before and after treatments. […] Urine was collected in acid-washed tubes, acidified with 0.03 ml of 6 mol/L of HCl per ml of urine and the total volume was measured. […] Initial and weekly body weights were measured. Sham animals were fed ad libitum and their precise food intakes were measured every three days. Before each feeding, the food remaining was weighed and the amount ingested was calculated. […]
(§5) The composition of the semi-purified casein-based diets are described in the following table. […] Sham animals were fed ad libitum and their precise food intakes were measured every three days. Before each feeding, the food remaining was weighed and the amount ingested was calculated. […]

[4] = system: ovariectomized (OVX) rats; experiment: Experiment III: serum, urine and bone mineral and biochemical measures
Method: as §4, §5

CC(C)(O)CC(=O)O [HMB, beta-hydroxy beta methylbutyrate]
effects on BMD [1]: no significant effects | reversal of osteopenia [1]: did not reverse established osteopenia | Bone mineral content (LS Mean ± SE) Femur ([1]; OVX rats): 0.4155 ± 0.00996 | Bone mineral content (LS Mean ± SE) Spine ([1]; OVX rats): 0.1187 ± 0.00419 | Bone mineral content (LS Mean ± SE) Whole body ([1]; OVX rats): 9.7590 ± 0.1323 | Bone mineral density (Mean ± SE) Femur ([1]; OVX rats): 0.2198 ± 0.00293b | Bone mineral density (Mean ± SE) Spine ([1]; OVX rats): 0.2341 ± 0.0035bc | Change in Bone mineral density (from Baseline) Whole body ([1]; OVX rats, baseline to final): 0.00298 ± 0.00144ab | Bone mineral density (Mean ± SE) Whole body ([1]; OVX rats, casein-based diets): 0.1599 ± 0.0016b | Bone Volume/Total Volume (Ranked) Mean ± SE [2]: 0.1141 ± 0.00658b | Connective Density (Ranked) Mean ± SE [2]: 32.865 ± 2.472b | Structural Model Index (Ranked) Mean ± SE [2]: 1.931 ± 0.04093a | Trabecular No. (Ranked) Mean ± SE [2]: 1.649 ± 0.078c 1/mm | Trabecular separation (Ranked) Mean ± SE [2]: 0.6555 ± 0.03361a mm | Body Weight Gain during Treatment period Mean ± SE ([3]; OVX rats, pair-fed to SHAM): 29.0 ± 6.9 | fat gain during the treatment period ([3]; compared to OVX-control): significantly less fat gain | Serum IGF-1 levels compared to OVX-control [4]: significant increases
